In publication PMC10687071 (The Journal of Biological Chemistry, 2023):
Numbering of substitutions follows the chain as printed.

Columns and labels:
[1] = molecular target: T1, D39G/R84G mutant EAG1 channels (Mus musculus, UniProt Q60603, D39G/R84G); assay: TEVC recording, imipramine inhibition, D39G/R84G double mutant; assay type: cell-based; details: D39G/R84G mutant EAG1 channel, +50 mV
T1 construct: expressed in transfected cells; host or cells: Xenopus laevis oocytes injected with cRNA
T1 sequence (Q60603 1-989 D39G/R84G): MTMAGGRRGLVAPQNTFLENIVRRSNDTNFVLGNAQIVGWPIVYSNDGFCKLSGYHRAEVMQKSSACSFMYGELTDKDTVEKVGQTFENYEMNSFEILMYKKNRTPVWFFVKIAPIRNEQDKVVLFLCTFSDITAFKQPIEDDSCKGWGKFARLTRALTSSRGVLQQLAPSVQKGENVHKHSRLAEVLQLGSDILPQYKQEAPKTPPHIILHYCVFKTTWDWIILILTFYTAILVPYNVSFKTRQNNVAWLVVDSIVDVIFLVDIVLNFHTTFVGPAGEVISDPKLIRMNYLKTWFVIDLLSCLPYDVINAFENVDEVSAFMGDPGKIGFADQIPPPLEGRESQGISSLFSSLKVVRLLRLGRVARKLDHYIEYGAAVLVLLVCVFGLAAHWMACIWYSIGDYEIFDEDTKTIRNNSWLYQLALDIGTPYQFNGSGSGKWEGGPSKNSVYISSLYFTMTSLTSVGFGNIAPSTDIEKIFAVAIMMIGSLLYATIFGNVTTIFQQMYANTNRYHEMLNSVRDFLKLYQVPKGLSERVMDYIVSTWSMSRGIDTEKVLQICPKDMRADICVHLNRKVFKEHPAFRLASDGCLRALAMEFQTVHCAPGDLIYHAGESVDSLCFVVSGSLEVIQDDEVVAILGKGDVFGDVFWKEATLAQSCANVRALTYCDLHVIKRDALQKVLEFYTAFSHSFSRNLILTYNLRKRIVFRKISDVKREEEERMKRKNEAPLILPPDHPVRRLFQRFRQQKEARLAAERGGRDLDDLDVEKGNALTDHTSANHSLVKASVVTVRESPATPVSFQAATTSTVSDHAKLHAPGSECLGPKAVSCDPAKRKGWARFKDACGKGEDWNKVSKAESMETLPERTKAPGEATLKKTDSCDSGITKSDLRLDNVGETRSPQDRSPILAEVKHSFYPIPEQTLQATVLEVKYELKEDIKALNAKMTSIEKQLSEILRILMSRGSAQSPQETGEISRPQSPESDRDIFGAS
From the text: (§1) The cDNA encoding wild-type (WT) mouse EAG1 channels in pGH19 vector was kindly provided by G. Robertson (University of Wisconsin-Madison, Madison, WI). The mutant ΔPAS EAG1 channel in pGH19 with the deletion of the PAS domain residues 2 to 130 was generated by Bio Basic Inc and verified by DNA sequencing (Genewiz). Mutant EAG1 channels with single amino acid substitutions were generated by Genewiz and verified by DNA sequencing. cRNA was transcribed using the T7 mMessage mMachine kit (Thermo Fisher Scientific). Defolliculated Xenopus laevis oocytes were purchased from Ecocyte Bioscience or Xenopus1 and injected with the cRNA using a Nanoinject II oocyte injector (Drummond).
(§2) For EAG1 current recordings, oocytes were placed into a handmade chamber containing a bath solution for the current recording. The currents were recorded using a TEVC technique with OC-725C amplifier (Warner Instruments) and pClamp11 software (Molecular Devices). The signals were digitized using Digidata 1550 (Molecular Devices). Patch pipettes were pulled from borosilicate glass and had resistances of 0.7 to 1.5 MΩ. The recording (bath) solution contained 96 mM NaCl, 4 mM KCl, 0.1 mM CaCl2, 1.8 mM MgCl2, and 5 mM HEPES, pH 7.5. The pipette solution contained 3 M KCl. […]

[2] = molecular target: T2, F130G mutant EAG1 channels (Mus musculus, UniProt Q60603, F130G); assay: TEVC recording, imipramine inhibition, F130G mutant; assay type: cell-based; details: F130G mutant EAG1 channel, +50 mV
T2 construct: expressed in transfected cells; host or cells: Xenopus laevis oocytes injected with cRNA
T2 sequence (Q60603 1-989 F130G): T1 sequence (Q60603 1-989 D39G/R84G) with G39D, G84R, F130G
From the text: as §1, §2

- IC50 [1]: 142 ± 28.5 µM
- IC50 [2]: 52.8 ± 5 µM
SMILES: CN(C)CCCN1c2ccccc2CCc2ccccc21 [imipramine]
